In patent publication US6352958B1, “Cycloimido-substituted benzofused heterocyclic herbicides” (FMC Corporation, priority 1997, dated 2002):

How the values were obtained:
Assay type in all cases: in vivo
[1] = test system: soybean (Glycine max var. Winchester); assay: Preemergence herbicidal activity, soybean; conditions: Rate of Application 0.3 Kg/Ha, examined after 12-17 days
[2] = test system: wheat (Triticum aestivum var. Lew); assay: Preemergence herbicidal activity, wheat; conditions: Rate of Application 0.3 Kg/Ha, examined after 12-17 days
[3] = test system: field corn (Zea mays var. Pioneer 3732); assay: Preemergence herbicidal activity, corn; conditions: Rate of Application 0.3 Kg/Ha, examined after 12-17 days
[4] = test system: velvetleaf (Abutilon theophrasti); assay: Preemergence herbicidal activity, velvetleaf; conditions: Rate of Application 0.3 Kg/Ha, examined after 12-17 days
[5] = test system: morningglory (Ipomea lacunosa or Ipomea hederacea); assay: Preemergence herbicidal activity, morningglory; conditions: Rate of Application 0.3 Kg/Ha, examined after 12-17 days
[6] = test system: common chickweed (Stellaria media); assay: Preemergence herbicidal activity, chickweed; conditions: Rate of Application 0.3 Kg/Ha, examined after 12-17 days
[7] = test system: common cocklebur (Xanthium strumarium L.); assay: Preemergence herbicidal activity, cocklebur; conditions: Rate of Application 0.3 Kg/Ha, examined after 12-17 days
[8] = test system: blackgrass (Aloepecurus myosuroides); assay: Preemergence herbicidal activity, blackgrass; conditions: Rate of Application 0.3 Kg/Ha, examined after 12-17 days
[9] = test system: green foxtail (Setaria viridis); assay: Preemergence herbicidal activity, green foxtail; conditions: Rate of Application 0.3 Kg/Ha, examined after 12-17 days
[10] = test system: Johnsongrass (Sorghum halepense); assay: Preemergence herbicidal activity, johnsongrass; conditions: Rate of Application 0.3 Kg/Ha, examined after 12-17 days
[11] = test system: soybean (Glycine max var. Winchester); assay: Postemergence herbicidal activity, soybean; conditions: rate of application 0.3 Kg/Ha, rated after 12-17 days
[12] = test system: wheat (Triticum aestivum var. Lew); assay: Postemergence herbicidal activity, wheat; conditions: rate of application 0.3 Kg/Ha, rated after 12-17 days
[13] = test system: field corn (Zea mays var. Pioneer 3732); assay: Postemergence herbicidal activity, corn; conditions: rate of application 0.3 Kg/Ha, rated after 12-17 days
[14] = test system: velvetleaf (Abutilon theophrasti); assay: Postemergence herbicidal activity, velvetleaf; conditions: rate of application 0.3 Kg/Ha, rated after 12-17 days
[15] = test system: morningglory (Ipomea lacunosa or Ipomea hederacea); assay: Postemergence herbicidal activity, morningglory; conditions: rate of application 0.3 Kg/Ha, rated after 12-17 days
[16] = test system: common chickweed (Stellaria media); assay: Postemergence herbicidal activity, chickweed; conditions: rate of application 0.3 Kg/Ha, rated after 12-17 days
[17] = test system: blackgrass (Aloepecurus myosuroides); assay: Postemergence herbicidal activity, blackgrass; conditions: rate of application 0.3 Kg/Ha, rated after 12-17 days
[18] = test system: green foxtail (Setaria viridis); assay: Postemergence herbicidal activity, green foxtail; conditions: rate of application 0.3 Kg/Ha, rated after 12-17 days
[19] = test system: Johnsongrass (Sorghum halepense); assay: Postemergence herbicidal activity, johnsongrass; conditions: rate of application 0.3 Kg/Ha, rated after 12-17 days
[20] = test system: common cocklebur (Xanthium strumarium L.); assay: Postemergence herbicidal activity, cocklebur; conditions: rate of application 0.3 Kg/Ha, rated after 12-17 days

Row | SMILES | PREEMERGENCE HERBICIDAL ACTIVITY (% CONTROL) SOY [1] | PREEMERGENCE HERBICIDAL ACTIVITY (% CONTROL) WHT [2] | PREEMERGENCE HERBICIDAL ACTIVITY (% CONTROL) CRN [3] | PREEMERGENCE HERBICIDAL ACTIVITY (% CONTROL) ABUTH [4] | PREEMERGENCE HERBICIDAL ACTIVITY (% CONTROL) IPOSS [5] | PREEMERGENCE HERBICIDAL ACTIVITY (% CONTROL) STEME [6] | PREEMERGENCE HERBICIDAL ACTIVITY (% CONTROL) XANPE [7] | PREEMERGENCE HERBICIDAL ACTIVITY (% CONTROL) ALOMY [8] | PREEMERGENCE HERBICIDAL ACTIVITY (% CONTROL) SETVI [9] | PREEMERGENCE HERBICIDAL ACTIVITY (% CONTROL) SORHA [10] | Postemergence herbicidal activity (% control) SOY [11] | Postemergence herbicidal activity (% control) WHT [12] | Postemergence herbicidal activity (% control) CRN [13] | Postemergence herbicidal activity (% control) ABUTH [14] | Postemergence herbicidal activity (% control) IPOSS [15] | Postemergence herbicidal activity (% control) STEME [16] | Postemergence herbicidal activity (% control) ALOMY [17] | Postemergence herbicidal activity (% control) SETVI [18] | Postemergence herbicidal activity (% control) SORHA [19] | other results
1 | CC(C)Oc1nc2c(-n3c(=O)cc(C(F)(F)F)n(C)c3=O)c(F)cc(Br)c2o1 [Compound 107] | 80% | 60% | 90% | 100% | 100% | 100% | 40% | 75% | 100% | 100% | 95% | 40% | 100% | 100% | 100% | 100% | 90% | 100% | 100% | –
2 | C=C(C)c1cc2c(Cl)cc(F)c(-n3c(=O)cc(C(F)(F)F)n(C)c3=O)c2o1 [Compound 231] | 100% | 80% | 100% | 100% | 100% | 100% | 100% | 90% | 100% | 100% | 100% | 70% | 100% | 100% | 100% | 100% | 100% | 100% | 100% | –
3 | COCOC(C)(C)c1cc2c(Cl)cc(F)c(-n3c(=O)cc(C(F)(F)F)n(C)c3=O)c2o1 [Compound 252] | 100% | 100% | 100% | 100% | 100% | 100% | – | 100% | 100% | 100% | 95% | 90% | 100% | 100% | 100% | 100% | 100% | 100% | 100% | –
4 | CNC(=O)c1cc2c(Cl)ccc(-n3c(=O)cc(C(F)(F)F)n(C)c3=O)c2o1 [Compound 270] | 70% | 70% | 90% | 100% | 100% | – | 60% | 65% | 100% | 100% | 70% | 40% | 50% | 100% | 60% | 40% | 50% | 50% | 50% | –
5 | Cn1c(C(F)(F)F)cc(=O)n(-c2c(F)cc(Cl)c3[nH]c(C(F)(F)F)nc23)c1=O [Compound 365, 3-(4-CHLORO-6-FLUORO-2-TRIFLUOROMETHYLBENZIMIDAZOL-7-YL)-1-METHYL-6-TRIFLUOROMETHYL-2,4(1H,3H)-PYRIMIDINEDIONE] | – | – | – | – | – | – | – | – | – | – | – | – | – | – | – | – | – | – | – | inhibition at 300 g/ha ([2]; Triticum aestivum, pre-emergence, read-out: PREEMERGENCE HERBICIDAL ACTIVITY (% CONTROL) WHT): 30%; inhibition at 300 g/ha ([3]; Zea mays, pre-emergence, read-out: PREEMERGENCE HERBICIDAL ACTIVITY (% CONTROL) CRN): 30%; inhibition at 300 g/ha ([4]; Abutilon theophrasti, pre-emergence, read-out: PREEMERGENCE HERBICIDAL ACTIVITY (% CONTROL) ABUTH): 100%; inhibition at 300 g/ha ([5]; Ipomoea, pre-emergence, read-out: PREEMERGENCE HERBICIDAL ACTIVITY (% CONTROL) IPOSS): 100%; inhibition at 300 g/ha ([6]; Stellaria media, pre-emergence, read-out: PREEMERGENCE HERBICIDAL ACTIVITY (% CONTROL) STEME): 100%; inhibition at 300 g/ha ([7]; Xanthium strumarium, pre-emergence, read-out: PREEMERGENCE HERBICIDAL ACTIVITY (% CONTROL) XANPE): 100%; inhibition at 300 g/ha ([8]; Alopecurus myosuroides, pre-emergence, read-out: PREEMERGENCE HERBICIDAL ACTIVITY (% CONTROL) ALOMY): 60%; inhibition at 300 g/ha ([9]; Setaria viridis, pre-emergence, read-out: PREEMERGENCE HERBICIDAL ACTIVITY (% CONTROL) SETVI): 75%; inhibition at 300 g/ha ([10]; Sorghum halepense, pre-emergence, read-out: PREEMERGENCE HERBICIDAL ACTIVITY (% CONTROL) SORHA): 60%; inhibition at 300 g/ha ([11]; Glycine max, post-emergence, read-out: Postemergence herbicidal activity (% control) SOY): 100%; inhibition at 300 g/ha ([12]; Triticum aestivum, post-emergence, read-out: Postemergence herbicidal activity (% control) WHT): 40%; inhibition at 300 g/ha ([13]; Zea mays, post-emergence, read-out: Postemergence herbicidal activity (% control) CRN): 70%; inhibition at 300 g/ha ([14]; Abutilon theophrasti, post-emergence, read-out: Postemergence herbicidal activity (% control) ABUTH): 100%; inhibition at 300 g/ha ([15]; Ipomoea, post-emergence, read-out: Postemergence herbicidal activity (% control) IPOSS): 100%; inhibition at 300 g/ha ([16]; Stellaria media, post-emergence, read-out: Postemergence herbicidal activity (% control) STEME): 100%; inhibition at 300 g/ha ([17]; Alopecurus myosuroides, post-emergence, read-out: Postemergence herbicidal activity (% control) ALOMY): 70%; inhibition at 300 g/ha ([18]; Setaria viridis, post-emergence, read-out: Postemergence herbicidal activity (% control) SETVI): 80%; inhibition at 300 g/ha ([19]; Sorghum halepense, post-emergence, read-out: Postemergence herbicidal activity (% control) SORHA): 30%
6 | CCOC(=O)c1cc2c(N3C(=O)C4=C(CCCC4)C3=O)ccc(Cl)c2[nH]1 [Compound 595, 3-(7-CHLORO-2-ETHOXYCARBONYLINDOL4-YL)-4,5,6,7-TETRAHYDRO-1H-ISOINDOLE-1,3(2H)-DIONE] | 10% | 0% | 0% | 60% | 50% | 10% | 20% | – | 0% | 40% | 50% | 10% | 60% | 30% | 40% | 0% | 10% | 20% | 20% | Postemergence herbicidal activity (% control) XANPE [20]: 20%
